Measurements taken from EP3184514A1, “AUTOPHAGY INHIBITORS” (Deutsches Krebsforschungszentrum, priority 2015, dated 2017).

Columns and labels:
[1] = target: T1, GST-tagged LC3B (Homo sapiens, UniProt Q9GZQ8); experiment: GST-pulldown with purified GST-LC3B and lysates of treated cells; conditions: HEK293T cells treated 100 µM, 1 hour; remaining binding compared to DMSO control
T1 construct: made in house; host or cells: E. coli Rosetta (DE3)
Method: A gene encoding for human LC3B protein inserted in a pET-GST expression vector was used as a template. Rosetta (DE3) competent cells were transformed by started procedure, plated on an LB agar plate with ampicillin (100 µg/ml) and left overnight at 37 °C. Overnight culture was prepared from a single colony and shaken at 180 rpm at 37 °C. LB medium with ampicillin was inoculated with overnight culture (10 ml per 500 ml of LB) and shaken until the optical density at 600 nm (OD600) reached a value of approximately 0.6. Protein expression was then induced with 400 µM IPTG and further incubated for 4 hours. Bacterial culture was centrifuged for 20 minutes at 6000 rpm at 4 °C. The pellet was then resuspended in lysis buffer (20 mM TRIS-HCl pH 7.5, 10 mM EDTA, 5 mM EGTA, 150 mM NaCl, 0.5 % NP40, 1 % Triton X-100, 1 mM DTT, 2 mg/ml lysozyme, 0.05 U/µl benzonase, 1x protease inhibitor cocktail). Lysate was then stored at -20 °C over night. Sample was thawed in water bath and sonicated on ice (40 % amplitude, 30 seconds pulse/30 seconds pause cycle). Lysate was centrifuged at 10000xg at 4 °C for half an hour. Meanwhile, 500 µl of glutathione sepharose beads was equilibrated with lysis buffer and then added to the supernatant. The mixture was incubated and rotated at room temperature for 2 hours. After binding of the protein to the beads, beads were spun down at 500xg at 4 °C for 5 minutes. […]

[2] = target: T2, LC3B (Homo sapiens, UniProt Q9GZQ8); experiment: AlphaScreen interaction displacement assay (GST-LC3B / biotin-LIRtide); format: binding; conditions: Table 1-a; n.e. means no effect; read-out: LC3B inhibition cell free IC50
T2 construct: made in house; host or cells: E. coli Rosetta (DE3)
Method: The AlphaScreen assay contained 50 mM Tris (pH 7.5), 100 mM NaCl, 0.01% Tween 20, 2 mM DTT, 1 % DMSO and 2-30 nM GST-LC3B and biotin-LIRtide 2-30 nM. The concentrations of GST-LC3B and biotin-LIRtide were experimentally chosen from a cross-titration assay exploring the different combinations of for each batch of protein used and when a new batch of buffer was prepared.
A gene encoding for human LC3B protein inserted in a pET-GST expression vector was used as a template. Rosetta (DE3) competent cells were transformed by started procedure, plated on an LB agar plate with ampicillin (100 µg/ml) and left overnight at 37 °C. Overnight culture was prepared from a single colony and shaken at 180 rpm at 37 °C. LB medium with ampicillin was inoculated with overnight culture (10 ml per 500 ml of LB) and shaken until the optical density at 600 nm (OD600) reached a value of approximately 0.6. Protein expression was then induced with 400 µM IPTG and further incubated for 4 hours. Bacterial culture was centrifuged for 20 minutes at 6000 rpm at 4 °C. The pellet was then resuspended in lysis buffer (20 mM TRIS-HCl pH 7.5, 10 mM EDTA, 5 mM EGTA, 150 mM NaCl, 0.5 % NP40, 1 % Triton X-100, 1 mM DTT, 2 mg/ml lysozyme, 0.05 U/µl benzonase, 1x protease inhibitor cocktail). Lysate was then stored at -20 °C over night. Sample was thawed in water bath and sonicated on ice (40 % amplitude, 30 seconds pulse/30 seconds pause cycle). Lysate was centrifuged at 10000xg at 4 °C for half an hour. Meanwhile, 500 µl of glutathione sepharose beads was equilibrated with lysis buffer and then added to the supernatant. The mixture was incubated and rotated at room temperature for 2 hours. After binding of the protein to the beads, beads were spun down at 500xg at 4 °C for 5 minutes. Pellet was then washed with cold wash buffer at least four times (20 mM Tris-HCl pH 7.5, 10 mM EDTA, 5 mM EGTA, 150 mM NaCl, 1 mM DTT), dried and stored in 5 % glycerol at 4 °C.

[3] = tested on: PANC1, HCT116, A549; experiment: LC3B and p62 spots in autophagy-dependent cancer cell lines; format: cell-based; conditions: 1 hr, 100 µM; all three cell lines
Method: For screening purposes, cells were seeded in 384 well plates and left over night for attachment. […] For controls, cells were treated with 250 nM torin and/or 100 nM BafA1 for 2 hours.
Afterwards, medium was removed and 4 % (w/v) paraformaldehyde (PFA) in PBS buffer was added to the cells for 20 minutes, incubated at room temperature. Cells were permeabilized with 0.1 % (v/v) Triton X-100 for 10 min at room temperature and washed with PBS. Cells were blocked with 3 % (w/v) bovine serum albumin (BSA) in PBS for 45 minutes at 37 °C and then incubated with anti-LC3B (PM036, MBL) or anti-p62 (PM045 or M162-3, MBL) primary antibody diluted in 0.3 % BSA (1:2000 or 1:500) for 1.5-2 hours at 37 °C. Cells were washed three times with PBS. Secondary Alexa Fluor 488 - labeled antibodies (A-11008, Invitrogen) were diluted in 0.3 % BSA (1:2500) and incubated on cells for 15 minutes at 37 °C. Cells were washed once with PBS, incubated with DRAQ5 (#4084, Cell Signaling) diluted in PBS (1:5000) for 10 minutes and washed three times with PBS.
384 well plates were then analyzed with an automated confocal microscope Opera (PerkinElmer) enabling high throughput high content screening image analysis. Confocal images were taken at the Institute of Biochemistry II, Goethe University Medical School, Theodor-Stern-Kai 7, 60590 Frankfurt am Main, Germany. […] Signal was detected with a fast gated CCD camera. […]

[4] = tested on: U2OS cells; experiment: MTT cell viability assay; format: cell-based, Human
Method: The MTT assay is a colorimetric assay for assessing cell viability. NAD(P)H-dependent cellular oxidoreductase enzymes in metabolic active cells reduce the tetrazolium dye MTT 3-(4,5-dimethylthiazol-2-yl)-2,5-diphenyltetrazolium bromide to its insoluble purple formazan. All cell types were seeded in 96 well plates and left over night for attachment. Next day, cells were treated with 100 µM compound I-1 for 24, 48, 72, and 96 hours. For controls, 1 µM staurosporine and 100 nM BafA1 were used. The assay was performed according to manufacturer's instructions and the absorbance of the formazan product was measured at 595 nm.

SMILES: Brc1ccc(CSC2=NCN(Cc3cccnc3)CN2)cc1 [Compound I-1, 6-((4-bromobenzyl)thio)-3-(pyridin-3-ylmethyl)-1,2,3,4-tetrahydro-1,3,5-triazine]
- binding of p62 and ATG13 to GST-tagged LC3B [1]: approximately 50%
- IC50 [2]: 6 µM
- number of LC3B and p62 spots [3]: increased
- cell survival ([4]; 72 and 96 hours): almost no cell survival
- cell viability ([4]; 24 hours, 100 µM): decreased viability
